Test results taken from patent publication US7790898B2, “Substituted 3-phenylpiperidine compounds, their preparation and use” (Gruenenthal GmbH, priority 2004, dated 2010).

test system: L-calcium channel benzothiazepine binding site; assay: Binding at the L-calcium channel benzothiazepine binding site (diltiazem binding); details: 10 μM test compound; [3H]-cis-(+)-diltiazem 5 nM; rat cerebral cortex membranes; 20 minutes at 25° C.
Experimental: Biological Data: Investigations on Binding at the L-Calcium Channel Benzothiazepine Binding Site (Diltiazem Binding)
The biological membrane material was isolated from rat cerebral cortex. [^3H]-cis-(+)-diltiazem (5 nM in the batch) was used as ligand. Incubation was for 20 minutes at 25° C. The radioactivity measured in the presence of (±)-diltiazem (10^−6 M in the batch) is defined as the non-specific binding. The non-bound fraction of the radioactive ligand was separated after completion of the incubation, using a filtration process through Whatman glass fiber GF/B membranes. After being washed, the membranes were then measured in a β-counter. The method was developed based on the publication by Schoemaker and Langer (H. Schoemaker and S. Z. Langer (1985) Eur. J. Pharmacol. 111, 273-277).

First: COc1cccc(C2(O)CCCN(Cc3ccc(C#N)cc3)C2)c1.Cl (centres unmarked) [Example 44, 4-[3-hydroxy-3-(3-methoxyphenyl)-piperidine-1-ylmethyl]-benzonitrile hydrochloride]
Second: COc1cccc(C2(O)CCCN(Cc3ccc(F)cc3)C2)c1.Cl (centres unmarked) [Example 33, 1-(4-fluorobenzyl)-3-(3-methoxyphenyl)-piperidine-3-ol hydrochloride]
The “Diltiazem binding [10 μM] % inhibition” value of the first is lower: 52.3% for the first, 95% for the second.

Going from COc1cccc(C2(O)CCCN(Cc3cccc(F)c3)C2)c1.Cl (centres unmarked) [Example 32, 1-(3-fluorobenzyl)-3-(3-methoxyphenyl)-piperidine-3-ol hydrochloride] to COc1cccc(C2(O)CCCN(Cc3cccc(Br)c3)C2)c1.Cl (centres unmarked) [Example 49, 1-(3-bromobenzyl)-3-(3-methoxyphenyl)-piperidine-3-ol hydrochloride], the “Diltiazem binding [10 μM] % inhibition” value rises from 83.7% to 90.4%.

First: COc1cccc(C2(O)CCCN(Cc3ccc(Cl)c(Cl)c3)C2)c1.Cl (centres unmarked) [Example 37, 1-(3,4-dichlorbenzyl)-3-(3-methoxyphenyl)-piperidine-3-ol hydrochloride]
Second: COc1cccc(C2(O)CCCN(Cc3ccc(Cl)c([N+](=O)[O-])c3)C2)c1.Cl (centres unmarked) [Example 51, 1-(4-chloro-3-nitro-benzyl)-3-(3-methoxyphenyl)-piperidine-3-ol hydrochloride]
The “Diltiazem binding [10 μM] % inhibition” value of the first is lower: 80.7% for the first, 81.4% for the second.

Going from COc1ccc(CN2CCCC(O)(c3cccc(C)c3)C2)cc1.Cl (centres unmarked) [Example 43, 1-(4-methoxybenzyl)-3-(3-methylphenyl)-piperidine-3-ol hydrochloride] to COc1cccc(C2(O)CCCN(Cc3ccc(C)cc3)C2)c1.Cl (centres unmarked) [Example 39, 3-(3-methoxyphenyl)-1-(4-methylbenzyl)-piperidine-3-ol hydrochloride], the “Diltiazem binding [10 μM] % inhibition” value rises from 55% to 76%.

First: COc1cccc(C2(O)CCCN(CCOc3ccccc3)C2)c1.Cl (centres unmarked) [Example 41, 3-(3-methoxyphenyl)-1-(2-phenoxy-ethyl)-piperidine-3-ol hydrochloride]
Second: COc1cccc(C2(O)CCCN(CCc3ccccc3)C2)c1.Cl (centres unmarked) [Example 47, 3-(3-methoxyphenyl)-1-phenethyl-piperidine-3-ol hydrochloride]
The “Diltiazem binding [10 μM] % inhibition” value of the first is higher: 92.7% for the first, 79.4% for the second.

First: COc1cccc(C2(O)CCCN(Cc3cccc(C(F)(F)F)c3)C2)c1.Cl (centres unmarked) [Example 40, 3-(3-methoxyphenyl)-1-(3-trifluoromethylbenzyl)-piperidine-3-ol hydrochloride]
Second: COc1cccc(C2(O)CCCN(Cc3cc(C(F)(F)F)cc(C(F)(F)F)c3)C2)c1.Cl (centres unmarked) [Example 52, 1-(3,5-bis-trifluoromethyl-benzyl)-3-(3-methoxyphenyl)-piperidine-3-ol hydrochloride]
The “Diltiazem binding [10 μM] % inhibition” value of the first is higher: 85.9% for the first, 75.9% for the second.

Going from COc1cccc(C2(O)CCCN(Cc3ccc(C)c([N+](=O)[O-])c3)C2)c1.Cl (centres unmarked) [Example 50, 3-(3-methoxyphenyl)-1-(4-methyl-3-nitro-benzyl)-piperidine-3-ol hydrochloride] to COc1cccc(C2(O)CCCN(Cc3ccc([N+](=O)[O-])cc3)C2)c1.Cl (centres unmarked) [Example 42, 3-(3-methoxyphenyl)-1-(4-nitrobenzyl)-piperidine-3-ol hydrochloride], the “Diltiazem binding [10 μM] % inhibition” value falls from 73.8% to 50%.

Going from COc1cccc(C2(O)CCCN(CC(c3ccccc3)c3ccccc3)C2)c1.Cl (centres unmarked) [Example 48, 1-(2,2-diphenyl-ethyl)-3-(3-methoxyphenyl)-piperidine-3-ol hydrochloride] to COc1cccc(C2(O)CCCN(Cc3ccc(Br)cc3)C2)c1.Cl (centres unmarked) [Example 34, 1-(4-bromobenzyl)-3-(3-methoxyphenyl)-piperidine-3-ol hydrochloride], the “Diltiazem binding [10 μM] % inhibition” value falls from 88.2% to 78.7%.

Compared with COc1cccc(C2(O)CCCN(Cc3cc(F)cc(F)c3)C2)c1.Cl (centres unmarked) [Example 36, 1-(3,5-difluorobenzyl)-3-(3-methoxyphenyl)-piperidine-3-ol hydrochloride], COc1cccc(C2(O)CCCN(Cc3cccs3)C2)c1.Cl (centres unmarked) [Example 46, 3-(3-methoxyphenyl)-1-thiophen-2-ylmethyl-piperidine-3-ol hydrochloride] is higher in “Diltiazem binding [10 μM] % inhibition” value: 57.4% for the first, 81.8% for the second.

For COc1cccc(C2(O)CCCN(C(=O)c3ccc(C)cc3)C2)c1 (centres unmarked) [Example 9, [3-hydroxy-3-(3-methoxyphenyl)-piperidine-1-yl]-p-tolyl-methanone], the “Diltiazem binding [10 μM] % inhibition” value was 55.8%.

same assay, conditions: radioligand; rat cerebral cortex membranes; N=3, mean ±SEM; read-out: KD value for this high affinity binding site

“[^3H]-cis-(+)-diltiazem [reference compound]” was tested, and the Kd was 4.1 ± 0.75 nM.
